The values that follow come from patent publication US20250332173A1, “COMPOUNDS AND METHODS FOR MODULATING NUCLEIC ACID SPLICING” (REMIX THERAPEUTICS INC., priority 2021, published 2025).

Common to all, as to type: cell-based, human
Assay [1] has as its system MYB. The assay can be described thus: HiBiT protein abundance assay, MYB HiBiT K562 cell line. The following applies: HiBiT K562 cell line, 24 hours, top dose 10 μM; read-out: Effect on protein abundance, MYB (IC50 category). In outline: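 Tagged-protein abundance measured by split-NanoBiT luminescence after lysis, following 24 h compound exposure (37° C; 10 μM top, 3-fold, 10 points; DMSO ≤0.25%) of HiBiT knock-in K562 cells. Percent response vs DMSO and unmodified-cell controls; 4-parameter logistic interpolation at 50% gave IC50.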
(HiBiT is a short tag that completes a luciferase, so light tracks the accessible tagged protein.)

Assay [2] relates to Target C. Put plainly: HiBiT protein abundance assay, Target C (Promega Nano-Glo HiBiT Lytic Detection System, knock-in K562 cell line). The following applies: Homo sapiens, K562, 24 h, HiBiT K562 cell line, 24 hours, top dose 10 μM; read-out: Effect on protein abundance, Target C (IC50 category). In outline: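 Protein abundance was read by Nano-Glo HiBiT lytic luminescence after 24 h compound exposure (10-point, threefold series from 10 μM final) of HiBiT knock-in K562 cells. Parental K562 served as baseline; the 50%-abundance concentration was interpolated from a four-parameter logistic fit.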

Assay [3] relates to MYB mRNA. The assay can be described thus: RT-qPCR splicing assay, MYB canonical junction (CJ) and alternative junction (AJ) mRNA. The following applies: Homo sapiens; for AC50: increase in MYB alternative junction (AJ) mRNA, read-out: MYB AJ AC50. In outline:
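Read-out is one-step RT-qPCR on cell lysates detecting the exon-exon junction of each isoform, normalized to a housekeeping gene (PPIA in A673, GAPDH or GUSB in K562).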

Where [4] appears, read: Table 5 panel, canonical junction qPCR, compound concentration having 50% response in CJ decrease, read-out: MYB IC50 (decrease in CJ mRNA levels).
Where [5] appears, read: decrease in MYB canonical junction (CJ) mRNA, RT-qPCR, read-out: MYB CJ IC50.

Counter-ions that a name gives are not always drawn. Like-named read-outs stand apart in the source and are kept apart here. Some results are limits rather than exact numbers.

The term IC50 denotes the concentration that gives 50% inhibition. One may read the AC50 as the concentration giving half of the maximal activity seen. As for `Cc1cn2nc(-c3ccc4c(=O)n(C5CCNCC5)ccc4c3)cc(Oc3ccccc3F)c2n1` [Compound 544, 6-[8-(2-fluorophenoxy)-2-methyl-imidazo[1,2-b]pyridazin-6-yl]-2-(4-piperidyl) isoquinolin-1-one; hydrochloride], the IC50 in assay [1] was below 100 nM; in assay [2], below 100 nM; in assay [3] (setting [4]) it was 100 to 1000 nM; in assay [3] (setting [5]), below 100 nM. For the same compound, the AC50 in assay [3] (RT-qPCR) is 100 to 1000 nM.
As for `Cc1cn2nc(-c3ccc4c(=O)n(C5CCNCC5)ccc4c3)cc(Oc3cccc(F)c3)c2n1` [Compound 545, 6-[8-(3-fluorophenoxy)-2-methyl-imidazo[1,2-b]pyridazin-6-yl]-2-(4-piperidyl)isoquinolin-1-one; hydrochloride], the IC50 in assay [1], in assay [2], in assay [3] (setting [4]) and in assay [3] (setting [5]) was below 100 nM in each case. Further, the AC50 in assay [3] (RT-qPCR) is below 100 nM.
In the case of `Cc1cn2nc(-c3ccc4c(=O)n(C5CCNCC5)ccc4c3)cc(Oc3ccc(F)cc3)c2n1` [Compound 546, 6-[8-(4-fluorophenoxy)-2-methyl-imidazo[1,2-b]pyridazin-6-yl]-2-(4-piperidyl) isoquinolin-1-one; hydrochloride], the half-maximal inhibitory concentration (IC50) in assay [1], in assay [2], in assay [3] (setting [4]) and in assay [3] (setting [5]) was below 100 nM in each case. Further, the AC50 in assay [3] (RT-qPCR) was below 100 nM.
`COc1cccc(Oc2cc(-c3ccc4c(=O)n(C5CCNCC5)ccc4c3)nn3cc(C)nc23)c1` [Compound 547, 6-[8-(3-methoxyphenoxy)-2-methyl-imidazo[1,2-b]pyridazin-6-yl]-2-(4 piperidyl) isoquinolin-1-one]: the IC50 in assay [1], in assay [2], in assay [3] (setting [4]) and in assay [3] (setting [5]) was below 100 nM each time. In addition, the half-maximal activity concentration (AC50) in assay [3] (RT-qPCR) is below 100 nM.
As to `Cc1cn2nc(-c3cc(F)c4c(=O)n(C5CCNCC5)ncc4c3)cc(Oc3ccccc3)c2n1` [Compound 548, 8-fluoro-6-(2-methyl-8-phenoxy-imidazo[1,2-b]pyridazin-6-yl)-2-(4-piperidyl)phthala-zin-1-one], the IC50 in assay [1], in assay [2], in assay [3] (setting [4]) and in assay [3] (setting [5]) was below 100 nM each time. Further, the AC50 in assay [3] (RT-qPCR) was below 100 nM.
Turning to `Cc1cn2nc(-c3ccc4c(=O)n(C5CCNCC5)ncc4c3)cc(Oc3ccccc3)c2n1` [Compound 549, 6-(2-methyl-8-phenoxy-imidazo[1,2-b]pyridazin-6-yl)-2-(4-piperidyl) phthalazin-1-one], the IC50 in assay [1] is below 100 nM; in assay [2], below 100 nM; in assay [3] (setting [4]), below 100 nM; in assay [3] (setting [5]) it was 100 to 1000 nM. In addition, the concentration at half-maximal activity (AC50) in assay [3] (RT-qPCR) is below 100 nM.
With `Cc1cn2nc(-c3ccc4c(=O)n(C5CCNCC5)ccc4c3)cc(Oc3cccnc3)c2n1` [Compound 550, 6-[2-methyl-8-(3-pyridyloxy)imidazo[1,2-b]pyridazin-6-yl]-2-(4-piperidyl)isoquinolin-1-one], the half-maximal inhibitory concentration (IC50) in assay [1], in assay [2], in assay [3] (setting [4]) and in assay [3] (setting [5]) was below 100 nM in each case. The concentration at half-maximal activity (AC50) in assay [3] (RT-qPCR) was below 100 nM.
Take `Cc1cn2nc(-c3ccc4c(=O)n(C5CCNCC5)ccc4c3)cc(-n3ccc(=O)cc3)c2n1` [Compound 551, 6-[2-methyl-8-(4-oxo-1-pyridyl)imidazo[1,2-b]pyridazin-6-yl]-2-(4-piperidyl)isoquinolin-1-one]: the 50% inhibitory concentration (IC50) in assay [1], in assay [2], in assay [3] (setting [4]) and in assay [3] (setting [5]) was 100 to 1000 nM in each case. The AC50 in assay [3] (RT-qPCR) is 100 to 1000 nM.
As to `Cc1cn2nc(-c3ccc4c(=O)n(C5CCNCC5)ccc4c3)cc(-n3ccccc3=O)c2n1` [Compound 552, 6-[2-methyl-8-(2-oxo-1-pyridyl)imidazo[1,2-b]pyridazin-6-yl]-2-(4-piperidyl)isoquinolin-1-one], the IC50 is 1000 to 10000 nM in assay [1], above 10000 nM in assay [2], above 10000 nM in assay [3] (setting [4]) and above 10000 nM in assay [3] (setting [5]). Besides, in assay [3] (RT-qPCR), the half-maximal activity concentration (AC50) was above 10000 nM.
